Experimental data reported in patent US10905706B2, “Compositions and methods to accelerate resolution of acute lung inflammation” (The Johns Hopkins University, priority 2015, dated 2021).
Like-named read-outs stand apart in the source and are kept apart here.

What was measured:
wild type (WT) mice [1] = assay type: in vivo, mouse
Rag-1−/− mice = assay type: in vivo, mouse
[2] = tested on: diphtheria toxin-treated Foxp3DTR mice; assay type: in vivo, mouse
[3] = tested on: diphtheria toxin-treated WT mice; details: mouse, in vivo
[4] = tested on: A/PR/8/34 H1N1 influenza virus; test: DAC rescue treatment in influenza model; assay type: in vivo, mouse
wild type (WT) mice [5] = tested on: wild type (WT) mice
[6] = tested on: splenic CD4+ CD25+ cells (Tregs); test: Lymphocyte culture with DAC, FACS phenotype of Tregs
WT mice = test: IL-4 after i.t. LPS, WT mice of the Stat6 comparison; assay type: in vivo, mouse
Excerpt: (§1) Animals. Male C57BL/6J and BALB/cJ wild type (WT) mice (8-10 weeks old) were purchased from Jackson Laboratories (Bar Harbor, Me.). Stat6-/- mice on a BALB/c background (gift of Dr. Alan Scott) and Foxp3DTR mice on a C57BL/6 background (gift of Dr. Alexander Y. Rudensky of Memorial Sloan-Kettering) were bred. All mice were housed at the Johns Hopkins University Asthma and Allergy Bldg, and experiments conducted under a protocol approved by the Johns Hopkins Animal Care and Use Committee.
(§2) Whether the success of IL-4 therapy required M2-specific macrophage activation was also examined To test this hypothesis, the response to i.t. LPS was compared between WT mice and Stat6^−/− mice, which were deficient in a master transcriptional regulator of M2 differentiation and activation (75). […] In contrast to reduced M2 marker expression in Stat6^−/− mice, similar CD86 expression between groups (FIG. 18E) was also observed.

Stat6−/− mice = test: IL-4 after i.t. LPS, Stat6−/− mice; assay type: in vivo, mouse; details: day 5 after i.t. LPS
Excerpt: as §1, §2

Foxp3DTR mice = test: IL-4 after i.t. LPS, Treg-depleted Foxp3DTR mice; assay type: in vivo, mouse
i.t. H2O-exposed mice = details: mouse, in vivo
[7] = tested on: Pseudomonas aeruginosa (PAO1)
[8] = mouse, cited from earlier work
[9] = in vivo; cited from earlier work
WT C57BL/6 mice = test: IL-4 treatment after i.t. LPS, C57BL/6 mice
[10] = in solution; typically; cited from earlier work
[11] = day 10 post-inoculation, vs vehicle
[12] = days 5-6 after i.t. LPS, vs sham
[13] = mRNA, validated by lung immunoblots, days 4 and 6

Molecule: Nc1ncn([C@H]2C[C@H](O)[C@@H](CO)O2)c(=O)n1 [DAC, 5-aza-2′-deoxycytidine]
- mortality (wild type (WT) mice [1]; DAC from 24 h after i.t. LPS, vehicle 28.5%, P=0.029): none
- body weight (wild type (WT) mice [1]; after initial injury, vehicle sustained weight loss): steadily regained weight
- CD25 expression in lung Tregs (wild type (WT) mice [1]; data not shown): no significant change
- injury parameters (BAL protein, cell count, neutrophil count, histology) (wild type (WT) mice [1]; day 5 post-LPS): resolving phenotype
- CD39 expression in lung Tregs (wild type (WT) mice [1]; five days after injury): increased
- CD44 expression in lung Tregs (wild type (WT) mice [1]; five days after injury): increased
- CTLA-4 expression in lung Tregs (wild type (WT) mice [1]; five days after injury): modestly yet significantly increased
- Ki-67 expression in lung Tregs (wild type (WT) mice [1]; five days after injury): increased
- Foxp3 expression in lung Tregs (wild type (WT) mice [1]; five days post-LPS): increased
- spleen Treg levels (wild type (WT) mice [1]; five days post-LPS challenge): significantly elevated
- lung CD4+Foxp3− cell frequency or phenotype (wild type (WT) mice [1]; five days post-injury): did not impact
- lung Treg frequency or phenotype (wild type (WT) mice [1]; two days post-injury, after one DAC dose, data not shown): no effect
- mortality (Rag-1−/− mice; DAC days 1-4 after LPS, vehicle 50%, P=0.7): 44%
- injury resolution (Rag-1−/− mice; five days post-injury): could not be rescued
- lung injury resolution (weight, BAL protein, cell count, neutrophil count, histology) ([2]; five days post-LPS): did not accelerate lung injury resolution
- mortality ([2]; mouse, in vivo): 33%
- lung injury resolution [3]: accelerated lung injury resolution
- weight loss ([4]; DAC days 3-7 post-inoculation, day 10, vs vehicle): smaller magnitude of weight loss
- lung Treg Foxp3 expression ([4]; day 10 post-inoculation): increase
- lung Treg number ([4]; day 10 post-inoculation): increase
- BAL cell count [4, 11]: decreased
- BAL neutrophil count [4, 11]: decreased
- BAL protein [4, 11]: decreased
- histologic injury [4, 11]: decreased
- lung Treg frequency (wild type (WT) mice [5]; DAC 1 mg/kg i.p. days 1-4 after i.t. water, day 5, vs vehicle): increased
- lung Treg Foxp3 expression (wild type (WT) mice [5]; DAC i.p. days 1-4 after i.t. water, day 5, FACS): increased
- lung histology (wild type (WT) mice [5]; after four days of DAC or vehicle): normal
- BAL protein (wild type (WT) mice [5]; day 5 after i.t. water, both groups): low overall
- pulmonary or overt systemic toxicity (wild type (WT) mice [5]; dose that increased lung Treg number): did not cause pulmonary or overt systemic toxicity
- spleen Treg levels (wild type (WT) mice [5]; five days post-water treatment): significantly elevated
- weight loss or mortality (wild type (WT) mice [5]; i.t. water, data not shown): Neither group lost weight or experienced mortality
- CD39 expression in Tregs ([6]; 100 nM DAC vs vehicle, 48 h): did not augment
- CD44 expression in Tregs ([6]; 100 nM DAC vs vehicle, 48 h): increased CD44 expression
- CTLA-4 expression in Tregs ([6]; 100 nM DAC vs vehicle, 48 h): modestly increased
- percentage of Tregs expressing Ki-67 ([6]; 100 nM DAC vs vehicle, 48 h): higher percentage
- Foxp3 expression in Tregs ([6]; 48 h culture, anti-CD3/CD28, IL-2, DAC 10 or 100 nM): augmented Foxp3 expression
- difference in Foxp3 mean fluorescence intensity between DAC-induced Foxp3+ cells and Foxp3+ Tregs cultured with DAC ([6]; in vitro culture): approximately 50 fold

Molecule: IL-4: recombinant IL-4 cytokine (PeptroTech); in the examples given i.p. as a complex with anti-IL-4 antibody
- BAL neutrophils (WT mice; day 5): greater than two-fold reduction
- BAL protein (WT mice; day 5): greater than two-fold reduction
- weight (WT mice; days 4 and 5, vs all other groups): significant weight gain
- response to IL-4 (BAL protein and neutrophils) (Stat6−/− mice): blunted response
- BAL macrophages (Foxp3DTR mice; day 6, vs sham): significant increase
- M2 macrophage surface marker expression (Foxp3DTR mice; day 6, vs sham): higher
- BAL neutrophils (Foxp3DTR mice; day 6 after i.t. LPS, vs sham): significantly reduced
- BAL protein (Foxp3DTR mice; day 6 after i.t. LPS, vs sham): significantly reduced
- BAL total cell count (Foxp3DTR mice; day 6 after i.t. LPS, vs sham): significantly reduced
- weights (Foxp3DTR mice; i.t. LPS 3 mg/kg, DT, IL-4 days 2 and 3, vs sham): significantly increased
- Crs or DFCO (i.t. H2O-exposed mice): no marked differences
- BAL albumin ([7]; day 4, vs sham): two-fold reductions
- BAL neutrophils ([7]; day 4, vs sham): four-fold reduction
- MFI of MMR and Dectin-1 ([7]; day 4, vs sham): significantly increased
- percentage of alveolar macrophages (F4/80+) expressing MMR and Dectin-1 ([7]; day 4, vs sham): more than doubled
- BAL protein ([7]; i.t. PAO1 day 0, IL-4 days 2 and 3, day 4, vs sham): two-fold reductions
- lung CFU counts ([7]; mouse, in vivo): similar
- half-life in mice ([8]; in vivo): 30 min
- duration of in vivo IL-4 activity [8]: about 30 minutes
- safety in humans [9]: safe
- weight gain (WT C57BL/6 mice; by day 6 after i.t. LPS, vs sham): improved weight gain
- whole lung mRNA level of inducible nitric oxide synthase (Nos2) (WT C57BL/6 mice; day 4): reduced
- CD86 level on alveolar macrophages (F4/80+) (WT C57BL/6 mice; day 6, vs sham): three-fold lower
- Dectin-1 level on alveolar macrophages (F4/80+) (WT C57BL/6 mice; day 6, vs sham): four-fold higher
- MMR level on alveolar macrophages (F4/80+) (WT C57BL/6 mice; day 6, vs sham): four-fold higher
- Tregs recovered by BAL (WT C57BL/6 mice; day 6 after i.t. LPS, vs sham): significant three-fold increase
- histopathologic evidence of lung injury (WT C57BL/6 mice; day 6 after i.t. LPS, vs sham): reduced histopathologic evidence of lung injury
- diffusing capacity (DFCO) (WT C57BL/6 mice; day 6 following i.t. LPS): significantly improved
- lung collagen (WT C57BL/6 mice; day 6 following i.t. LPS, vs sham): significantly reduced
- BAL albumin (WT C57BL/6 mice; [12]): two-fold reduction
- BAL neutrophils (WT C57BL/6 mice; [12]): five-fold reduction
- BAL protein (WT C57BL/6 mice; [12]): as much as a three-fold reduction
- survival (WT C57BL/6 mice; i.t. LPS 4 mg/kg day 0, IL-4 days 2-4, sham 57%): 92%
- number of FIZZ1-expressing alveolar macrophages (WT C57BL/6 mice; i.t. LPS, vs sham): smaller, yet significant increase
- number of FIZZ1-expressing interstitial macrophages (WT C57BL/6 mice; i.t. LPS, vs sham): significant two-fold increase
- Arginase 1 (Arg1) level in whole lung (WT C57BL/6 mice; [13]): significantly increased
- Fizz1 (Retn1a) level in whole lung (WT C57BL/6 mice; [13]): significantly increased
- Ym1 (Chil3) level in whole lung (WT C57BL/6 mice; [13]): significantly increased

Molecule: diphtheria toxin [reference compound]
- Tregs remaining after depletion, of all CD4+ cells (Foxp3DTR mice; spleen, lung, BAL, sham- and IL-4-treated groups): less than 0.2%

B1: recombinant human IL-4: 15.1 kDa globular protein, SEQ ID NO: 3 (protein)
chain: MHKCDITLQEIIKTLNSLTEQKTLCTELTVTDIFAASKNTTEKETFCRAATVLRQFYSHHEKDTRCLGATAQQFHRHKQLIRFLKRLDRNLWGLAGLNSCPVKEANQSTLENFLERLKTIMREKYSKCSS
- ED50 for certain effects [10]: 0.006 to 0.03 ng/mL
